# Test system: PANC2.03 subcutaneous tumors
# Test: Drug sensitization assay, PANC2.03 subcutaneous tumors in nude mice
# Format: in vivo
# Experimental: FIG. 5. […] (B) 50,000 cells of PANC2.03 were subcutaneously injected into nude mice for the tumor initiation assay. The anti-LIF AB (clone D25.1.4) was given before the tumor inoculation at 10 mg/kg. The treatment was given three times a week. […] (C) In drug sensitization assay, 0.2×10^6 cells of PANC2.03 cells were first subcutaneously injected into nude mice. […] The mice were randomly separated into 4 different groups: control, Ab only, gemcitabine only, and combination. […] (D) Tumor volume changing curve in the PANC2.03 subcutaneous tumors with the treatment model of (C). […] Tumor proliferation rate=(Tumor vol on the later day−Tumor vol on the initial day)/Tumor vol on the initial day*100. […] The response to gemcitabine was analyzed in pancreatic cancer cells. […] The effects of LIF-neutralizing antibody were also tested in mouse models. […] In a drug sensitization assay, PANC2.03 cells were subcutaneously injected into nude mice to form tumors, then the mice were treated with anti-LIF antibody, gemcitabine, or a combination of anti-LIF antibody and gemcitabine.
smiles,measurement,setting,value
Nc1ccn([C@@H]2O[C@H](CO)[C@@H](O)C2(F)F)c(=O)n1 [gemcitabine],complete regressions of tumors,"0.2×10^6 PANC2.03 cells s.c., tumors formed within 14 days post-inoculation, then treatment, FIG. 5C",did not lead to the tumor regressions
same,tumor proliferation rate,"(Tumor vol on the later day−Tumor vol on the initial day)/Tumor vol on the initial day*100, FIG. 5E",still had a positive growth rate
same,fold change on tumor volumes,FIG. 5F,still had a positive growth rate
